One experiment relates to anti-D-VMA antibody. Briefly: Cross-reactivity of anti-D-VMA monoclonal antibodies with acidic catecholamine metabolites (competitive enzyme immunoassay). It counts as binding, mouse. The following applies: reactivity with D-VMA defined as 100%; for Antibody Reactivity (% by weight): from concentration ratios at 50% inhibition on standard curves. The protocol: Three days after the final booster, spleen cells of the mouse were enucleated and washed with Eagle's minimum essential medium (MEM). […] The spleen cells and P3 U1 were mixed at 10:1 and the mixture was centrifuged. To the pellets obtained was gradually added 1 ml of an MEM solution containing 50% polyethylene glycol (PEG) 1000 to cause cell fusion. […] 0.1 ml of the suspension was apportioned to each well of a 96-well microplate. One day thereafter, 0.1 ml of HAT medium was added. […] Into each well of the 96-well microplate previously coated with HSA and the 96-well microplate coated with D-VMA-HSA (10 μg/ml) was added […] of the above diluted culture supernatant. […] After one hour at room temperature, by the use of the same reagent as in the case of the ELISA method as described above except for using O-phenylenediamine as the chromogenic reagent, enzyme immunoassay was practiced according to the competitive reaction method.

Experiment [1] has as its system peroxidase-labeled anti-D-VMA antibody. Briefly: Competitive enzyme immunoassay of D-VMA or L-VMA solutions with peroxidase-labeled anti-D-VMA antibody on solid-phase antigen plate. It counts as binding, mouse. The following applies: conclusion drawn from Table 2. The protocol: A volume of 50 μl of the D-VMA solution or L-VMA solution as described above and 50 μl of the peroxidase-labeled anti-D-VMA antibody solution were added into each well, and reaction was carried out stationarily at room temperature for one hour.
After reaction, the solution in each well was discarded and each well was washed with a 0.9% aqueous sodium chloride solution.
After washing, 100 μl of a substrate solution (containing 1 mM H2 O2 and […] TMBZ) was added and left standing for 25 minutes. A volume of 100 μl of a reaction stopping solution (a 2N sulfuric acid solution) was added, and absorbance at 450 nm was measured by the use of a 96-well microplate reader MPR-A4 (produced by Toso K. K.).
After measurement, from the calibration curve prepared by the use of DL-VMA of a known concentration as a standard substance (FIG. 1), the VMA concentration corresponding to the above absorbance was determined.

On to `COc1cc(C(O)C(=O)O)ccc1O` (racemic) [DL-VMA, vanillylmandelic acid], for which the “Antibody Reactivity (% by weight)” value in the experiment with anti-D-VMA antibody was determined as 50 % by weight.

As for `O=C(O)C(O)c1ccc(O)c(O)c1` (stereo not shown) [3,4-Dihydroxymandelic acid (DOMA), 3,4-Dihydroxymandelic acid], the “Antibody Reactivity (% by weight)” value with anti-D-VMA antibody is reported as 4 % by weight.

Consider `O=C(O)Cc1ccc(O)c(O)c1` [3,4-Dihydroxyphenylacetic acid (DOPAC), 3,4-Dihydroxyphenylacetic acid], for which the “Antibody Reactivity (% by weight)” value in the experiment with anti-D-VMA antibody is less than 0.01 % by weight.

In the case of `COc1cc([C@@H](O)C(=O)O)ccc1O` [D-VMA, D-vanillylmandelic acid], in the experiment with anti-D-VMA antibody, the “Antibody Reactivity (% by weight)” value stood at 100 % by weight.

In the case of `COc1cc(CC(=O)O)ccc1O` [Homovanilic acid (HVA), Homovanilic acid], the “Antibody Reactivity (% by weight)” value in the experiment on anti-D-VMA antibody is listed as less than 0.01 % by weight.

As to `COc1cc([C@H](O)C(=O)O)ccc1O` [L-VMA], the “reactivity of the labeled antibody” value in experiment [1] is listed as “substantially no reactivity”. Besides, in the experiment on anti-D-VMA antibody, the “cross-reactivity of the antibody reagent” value is no more than 1% and the “Antibody Reactivity (% by weight)” value was less than 1 % by weight.

`CNCC(O)c1ccc(O)c(OC)c1` (stereo not shown) [Metanepherine]: the “Antibody Reactivity (% by weight)” value in the experiment on anti-D-VMA antibody was less than 0.01 % by weight.

On to `COc1cc(CC(=O)C(=O)O)ccc1O` [Vanillylpyruvic acid], for which the “Antibody Reactivity (% by weight)” value in the experiment on anti-D-VMA antibody was 4 % by weight.

For the origin of these results see patent publication US5298397A, “Method of assaying d-vanillylmandelic acid” (Yamasa Shoyu Kabushiki Kaisha, priority 1989, dated 1994).
